In article PMC1350429 (Purinergic Signalling, 2005):
Like-named read-outs stand apart in the source and are kept apart here. One block for each compound: values may come before it.

Columns and labels:
human P2Y1 receptor [1] = biological target: T1, human P2Y1 receptor (Homo sapiens, UniProt P47900); format: cell-based; conditions: for Calcium response on addition of nucleotide: control experiments
human P2Y1 receptor [2] = biological target: T1, human P2Y1 receptor; test: Yeast liquid growth assay; format: cell-based
human P2Y1 receptor [3] = biological target: T1, human P2Y1 receptor; test: [3H]MRS2279 binding assay, membranes from astrocytoma cells
P2Y1 receptor = conditions: read-out: KB previously reported; cited from earlier work
[4] = read-out: Functional potency (EC50), Calcium (astrocytoma), 1321N1 astrocytoma cells, FlexStation, n = 3
[5] = read-out: Binding (Ki), Astrocytoma, competition for [3H]MRS2279 (8 nM) binding, 30 min, 4°C

T1 sequence (P47900 whole entry): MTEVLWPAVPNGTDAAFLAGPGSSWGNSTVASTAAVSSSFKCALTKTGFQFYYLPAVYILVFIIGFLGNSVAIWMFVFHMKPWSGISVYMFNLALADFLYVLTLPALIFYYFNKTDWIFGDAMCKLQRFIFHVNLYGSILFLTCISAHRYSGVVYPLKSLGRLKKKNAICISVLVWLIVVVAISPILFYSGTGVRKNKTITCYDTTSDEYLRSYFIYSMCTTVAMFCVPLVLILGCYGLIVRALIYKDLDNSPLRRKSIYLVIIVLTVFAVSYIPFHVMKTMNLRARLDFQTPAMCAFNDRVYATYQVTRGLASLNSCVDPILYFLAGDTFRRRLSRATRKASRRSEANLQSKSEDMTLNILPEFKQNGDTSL

- Calcium response on addition of nucleotide (human P2Y1 receptor [1]): did not induce any response
Compound: O=c1ccn([C@@H]2O[C@H](COP(=O)(O)OP(=O)(O)OP(=O)(O)O)[C@@H](O)[C@H]2O)c(=O)[nH]1 [UTP, uridine 5’-triphosphate]

- EC50 (human P2Y1 receptor [1]; [4]): 28 ± 13 nM
- Ki (human P2Y1 receptor [3]; [5]): 1100 nM
Compound: Nc1ccc(CCSc2nc(N)c3ncn([C@@H]4O[C@H](COP(=O)(O)OP(=O)(O)OP(=O)(O)O)[C@@H](O)[C@H]4O)c3n2)cc1 [PAPET-ATP, 2-[4-amino (2-phenylethyl)thio]-ATP]

- EC50 (human P2Y1 receptor [1]; [4]): 16 ± 11 nM
- Ki (human P2Y1 receptor [3]; [5]): 1700 nM
Compound: 2-hexylthioadenosine 5′-monophosphate [HT-AMP]

- Kb (human P2Y1 receptor [1]; KB (Schild analysis), antagonism of ADP-induced calcium mobilization): 164 nM
- Effect on ADP concentration-response curve in yeast growth assay (human P2Y1 receptor [2]; MRS2179 fixed at 10^-6, 10^-5, 10^-4 M, agonist ADP): right shift in the curves
Compound: CNc1ncnc2c1ncn2[C@H]1C[C@H](OP(=O)(O)O)[C@@H](COP(=O)(O)O)O1 [MRS2179, N^6-methyl-2′-deoxyadenosine-3′,5′-bisphosphate]
- Kb (P2Y1 receptor): 177 nM

Second part, the compound before the results:

Compound: O=c1ccn([C@@H]2O[C@H](COP(=O)(O)OP(=O)(O)O)[C@@H](O)[C@H]2O)c(=O)[nH]1 [UDP, uridine 5’-diphosphate]
- Calcium response on addition of nucleotide (human P2Y1 receptor [1]): did not induce any response
- Yeast growth in presence of nucleotide (human P2Y1 receptor [2]; data not shown): Basal growth was low

Compound: Nc1ncnc2c1ncn2[C@@H]1O[C@H](COP(=O)(O)OP(=O)(O)S)[C@@H](O)[C@H]1O (stereo partly drawn) [ADP-β-S, adenosine 5′-O-(2-thio-diphosphate)]
- EC50 (human P2Y1 receptor [1]): 86 ± 42 nM
- Ki (human P2Y1 receptor [3]): 710 nM
- EC50 (human P2Y1 receptor [2]): 21000 nM

Compound: Nc1ncnc2c1ncn2[C@@H]1O[C@H](COP(=O)(O)OP(=O)(O)O)[C@@H](O)[C@H]1O [ADP, adenosine 5′-diphosphate]
- EC50 (human P2Y1 receptor [1]): 58 ± 17 nM
- EC50 (human P2Y1 receptor [2]): 1800 ± 650 nM

Compound: Nc1ncnc2c1ncn2[C@@H]1O[C@H](COP(=O)(O)OP(=O)(O)OP(=O)(O)O)[C@@H](N)[C@H]1O [3AM-ATP, 3′-amino-3′-deoxy-ATP]
- EC50 (human P2Y1 receptor [1]; [4]): 3000 ± 1500 nM
